Values joined by “and” are separate entries in the source; they are usually repeats but may differ in a detail not shown here. Identical values can stand only once. Like-named read-outs stand apart in the source and are kept apart here.

Consider nine compounds from patent US20230348487A1, “2-AMINOPYRIMIDINE COMPOUND AND PHARMACEUTICAL COMPOSITION THEREOF AND APPLICATION THEREOF” (GUANGZHOU SALUSTIER BIOSCIENCES CO., LTD., priority 2021, published 2023).

Data set [1] has as its target JAK1 (Homo sapiens (Human), UniProt P23458). In words: Z′-Lyte kinase inhibitory activity test. As to conditions: ATP concentration Km. Type of data set: biochemical. The procedure: (§1) Test method: Firstly, test compounds were prepared into 10 mM stock solution with DMSO, and continuously diluted into 10 concentrations at a 3-fold gradient for later use. 5X reaction buffer was diluted with deionized water into 1×reaction buffer (50 mM HEPES pH 7.5, 0.01% Brij-35, 10 mM MgCl2, 1 mM EGTA), which was used to prepare a mixture of kinase and peptide substrate, as well as a phosphorylated peptide substrate solution. The kinase concentration was determined based on enzyme titration, and the final concentration of peptide substrate and phosphorylated peptide substrate was 2 μM. 5 μL of mixture substrate of kinase and peptide substrate was added to each well on the 384 well plate. Then 5 nL of the test compound (starting with a final concentration of 10 μM) was added with an Echo520 Sampler. […] An additional 100% phosphorylation well (5 μL phosphorylated peptide substrate solution), a 0% phosphorylated well (5 μL of a mixture of kinase and peptide substrate, without test compounds and ATP), and a 0% inhibitory well (5 μL of a mixture of kinase and peptide substrate and appropriate concentration of ATP) were set as control. Two repeats were set for each concentration. The above reaction system was incubated at 30° C. for 1.5 hours. […] 2.5 μL of the diluted mixture was added to each well and the system was incubated at 30° C. for another 1 hour. […] The substrate phosphorylation rate was obtained by calculating the ratio, and the activity of the kinase and the effect of the inhibitor on the kinase was further calculated. Every experiment was repeated at least three times.

In data set [2] the target is JAK2 (Homo sapiens (Human), UniProt O60674). In words: Z′-Lyte kinase inhibitory activity test. Type of data set: biochemical. The procedure:
as §1

Data set [3] has as its target JAK3 (Homo sapiens (Human), UniProt P52333). In words: Z′-Lyte kinase inhibitory activity test. The format is biochemical. To be noted: for JAK3 kinase inhibitory activity and selectivity (in words): summary of Table 3, activity maintained at ATP 1 mM. The method, then: as §1
The target of data set [4] is TYK2 (Homo sapiens (Human), UniProt P29597). In words: Z′-Lyte kinase inhibitory activity test. The format is biochemical. As to conditions: ATP concentration Km. The procedure:
as §1

Data set [5] relates to human T lymphoblastic lymphoma cell line Jurkat. In words: CCK-8 in vitro proliferation inhibition. The format is cell-based. To be noted: 72 hours, read-out: Inhibitory activity (IC50) on cell proliferation, JURKAT. The procedure: (§2) Cell lines: human chronic myeloid leukemia cell line K562, human acute myeloid leukemia cell line U937, human T lymphocyte leukemia cell line HuT78, and human T lymphoblastic lymphoma cell line Jurkat. Cells were purchased from the Chinese Academy of Sciences Stem Cell Bank or ATCC.
(§3) […] were cultured overnight and suspended cells were directly stimulated with drugs. […] Two repeats were set for each concentration, with a final volume of 200 μL. […] The absorbance values at 450 nm and 650 nm were measured using a microplate reader, and the increment Z (A450-A650) was derived. The inhibitory rate of drugs on cell growth was calculated by GraphPad Prism 8.0.0 through the following formula:
(§4) Inhibition rate (%)(ODcontrol−ODdosing)/ODcontrol×100%
(§5) The half inhibitory concentration (IC50) was calculated. Every experiment was repeated at least three times.

Data set [6] relates to human T lymphocyte leukemia cell line HuT78. In words: CCK-8 in vitro proliferation inhibition. To be noted: read-out: Inhibitory activity (IC50) on cell proliferation, HUT78. The format is cell-based. The procedure: as §2, §3, §4, §5
Data set [7] has as its system human acute myeloid leukemia cell line U937. In words: CCK-8 in vitro proliferation inhibition. Type of data set: cell-based. To be noted: read-out: Inhibitory activity (IC50) on cell proliferation, U937. The procedure:
as §2, §3, §4, §5

Data set [8] deals with human chronic myeloid leukemia cell line K562. In words: CCK-8 in vitro proliferation inhibition. The format is cell-based. As to conditions: read-out: Inhibitory activity (IC50) on cell proliferation, K562. The procedure: as §2, §3, §4, §5
Data set [9] deals with other subtypes (JAK family). To be noted: 1 mM ATP concentration; read-out: IC50 of the kinase, other subtypes; cited from earlier work.
A short description of data set [10]: Rat liver microsomes stability test. The format is in vitro ADME. As to conditions: for Remaining percentage: rat liver microsomes, average value. The method, then: Firstly, preheated 0.1 M potassium phosphate buffer with 5 mM MgCl2 (i.e. K/Mg buffer) at pH 7.4±0.1. Prepared the spiked solution for the tested compound and reference compound (500 μM spiked solution: added 5 μL of 10 mM stock solution into 95 μL of acetonitrile; 1.5 μM microsomal spiked solution (0.75 mg/mL): added 1.5 μL of 500 μM spiked solution and 18.75 μL of 20 mg/mL liver microsomes into 479.75 μL of K/Mg buffer). Then NADPH was dissolved in buffer K to prepare a 6 mM, 5 mg/mL NADPH stock solution. At different time points (0-, 5-, 15-, 30-, 45 minutes), 30 μL of 1.5 μM spiked solution containing 0.75 mg/mL of microsome solution was distributed onto the designated detection plate. At 0 min, 150 μL of acetonitrile containing internal standard (IS) was added to the 0 min plate well, followed by 15 μL of NADPH stock solution (6 mM). Then, all plates were pre-incubated at 37° C. for 5 minutes, added 15 μL of NADPH stock solution (6 mM), the reaction was initiated and timed. At 5 minutes, 15 minutes, 30 minutes, and 45 minutes, added 150 μL of acetonitrile solution containing IS to the corresponding wells to stop the reaction. After quenching, the plate was shaken for 10 minutes (600 rpm/min), followed by centrifugation at 6000 rpm/min for 15 minutes. 80 μL of supernatant of each well were transferred into a 96-well sample plate containing 140 μL of ultrapure water to perform LC/MS analysis. The analysis of biological samples and all samples were completed by the analysis laboratory of Medicipia Pharmaceutical Technology (Shanghai) Co., Ltd.
(In general: Microsomes from liver hold many membrane-bound enzymes, among them those of drug oxidation.)

JAK1, sequence (P23458 whole entry): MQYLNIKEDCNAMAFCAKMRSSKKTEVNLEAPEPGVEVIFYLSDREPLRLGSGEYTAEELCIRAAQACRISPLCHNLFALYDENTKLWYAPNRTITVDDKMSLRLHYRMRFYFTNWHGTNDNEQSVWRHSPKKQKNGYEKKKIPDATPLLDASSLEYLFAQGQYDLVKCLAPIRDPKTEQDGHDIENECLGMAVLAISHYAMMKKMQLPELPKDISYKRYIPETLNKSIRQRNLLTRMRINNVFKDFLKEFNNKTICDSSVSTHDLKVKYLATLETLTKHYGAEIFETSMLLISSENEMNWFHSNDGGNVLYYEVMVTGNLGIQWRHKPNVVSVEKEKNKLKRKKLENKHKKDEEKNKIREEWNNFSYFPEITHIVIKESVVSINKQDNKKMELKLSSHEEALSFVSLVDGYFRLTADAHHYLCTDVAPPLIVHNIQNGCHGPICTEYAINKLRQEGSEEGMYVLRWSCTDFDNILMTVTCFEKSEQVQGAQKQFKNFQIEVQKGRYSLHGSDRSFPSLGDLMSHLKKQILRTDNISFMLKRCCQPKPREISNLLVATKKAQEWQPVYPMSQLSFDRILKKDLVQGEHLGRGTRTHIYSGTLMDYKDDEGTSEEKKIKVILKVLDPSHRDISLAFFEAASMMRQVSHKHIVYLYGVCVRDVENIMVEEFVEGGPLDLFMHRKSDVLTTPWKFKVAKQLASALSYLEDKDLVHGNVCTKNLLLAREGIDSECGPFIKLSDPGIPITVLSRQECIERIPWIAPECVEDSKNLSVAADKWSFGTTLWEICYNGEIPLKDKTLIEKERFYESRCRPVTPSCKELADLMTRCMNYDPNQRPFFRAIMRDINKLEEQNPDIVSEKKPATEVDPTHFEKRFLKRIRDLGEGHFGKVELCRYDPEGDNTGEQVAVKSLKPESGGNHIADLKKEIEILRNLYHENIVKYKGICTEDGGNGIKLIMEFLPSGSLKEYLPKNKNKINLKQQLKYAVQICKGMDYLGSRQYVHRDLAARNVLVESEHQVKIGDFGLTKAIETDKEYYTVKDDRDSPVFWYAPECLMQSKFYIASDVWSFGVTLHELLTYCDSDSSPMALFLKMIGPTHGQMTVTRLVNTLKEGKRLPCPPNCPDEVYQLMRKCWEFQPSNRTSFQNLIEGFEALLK
JAK2, sequence (O60674 whole entry): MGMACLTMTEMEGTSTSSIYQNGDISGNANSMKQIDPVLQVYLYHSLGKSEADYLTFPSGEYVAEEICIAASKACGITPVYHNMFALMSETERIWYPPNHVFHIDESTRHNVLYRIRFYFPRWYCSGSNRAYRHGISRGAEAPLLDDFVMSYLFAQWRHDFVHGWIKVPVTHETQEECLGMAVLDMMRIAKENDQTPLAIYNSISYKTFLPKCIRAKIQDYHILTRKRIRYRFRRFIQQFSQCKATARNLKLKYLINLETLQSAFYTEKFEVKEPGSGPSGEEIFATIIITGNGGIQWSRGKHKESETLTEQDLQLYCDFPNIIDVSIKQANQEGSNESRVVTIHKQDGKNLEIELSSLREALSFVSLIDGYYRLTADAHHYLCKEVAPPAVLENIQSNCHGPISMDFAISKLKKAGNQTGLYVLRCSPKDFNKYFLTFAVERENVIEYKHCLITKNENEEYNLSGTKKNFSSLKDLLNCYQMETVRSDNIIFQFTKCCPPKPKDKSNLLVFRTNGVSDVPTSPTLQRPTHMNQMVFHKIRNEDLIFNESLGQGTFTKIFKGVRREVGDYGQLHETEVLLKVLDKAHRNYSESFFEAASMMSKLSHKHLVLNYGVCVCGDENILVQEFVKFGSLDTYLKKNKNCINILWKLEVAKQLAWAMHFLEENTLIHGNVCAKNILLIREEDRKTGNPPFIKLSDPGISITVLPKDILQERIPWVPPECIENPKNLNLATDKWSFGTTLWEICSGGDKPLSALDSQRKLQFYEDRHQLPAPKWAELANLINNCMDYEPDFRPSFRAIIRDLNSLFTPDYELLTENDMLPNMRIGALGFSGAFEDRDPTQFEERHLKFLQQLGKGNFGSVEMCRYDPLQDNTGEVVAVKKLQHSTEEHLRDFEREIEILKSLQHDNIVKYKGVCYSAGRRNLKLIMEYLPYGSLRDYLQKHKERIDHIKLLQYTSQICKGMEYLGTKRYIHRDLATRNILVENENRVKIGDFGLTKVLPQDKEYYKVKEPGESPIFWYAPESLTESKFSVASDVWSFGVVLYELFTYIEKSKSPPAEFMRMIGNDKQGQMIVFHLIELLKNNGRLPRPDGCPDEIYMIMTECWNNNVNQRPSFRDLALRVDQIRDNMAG
JAK3, sequence (P52333 whole entry): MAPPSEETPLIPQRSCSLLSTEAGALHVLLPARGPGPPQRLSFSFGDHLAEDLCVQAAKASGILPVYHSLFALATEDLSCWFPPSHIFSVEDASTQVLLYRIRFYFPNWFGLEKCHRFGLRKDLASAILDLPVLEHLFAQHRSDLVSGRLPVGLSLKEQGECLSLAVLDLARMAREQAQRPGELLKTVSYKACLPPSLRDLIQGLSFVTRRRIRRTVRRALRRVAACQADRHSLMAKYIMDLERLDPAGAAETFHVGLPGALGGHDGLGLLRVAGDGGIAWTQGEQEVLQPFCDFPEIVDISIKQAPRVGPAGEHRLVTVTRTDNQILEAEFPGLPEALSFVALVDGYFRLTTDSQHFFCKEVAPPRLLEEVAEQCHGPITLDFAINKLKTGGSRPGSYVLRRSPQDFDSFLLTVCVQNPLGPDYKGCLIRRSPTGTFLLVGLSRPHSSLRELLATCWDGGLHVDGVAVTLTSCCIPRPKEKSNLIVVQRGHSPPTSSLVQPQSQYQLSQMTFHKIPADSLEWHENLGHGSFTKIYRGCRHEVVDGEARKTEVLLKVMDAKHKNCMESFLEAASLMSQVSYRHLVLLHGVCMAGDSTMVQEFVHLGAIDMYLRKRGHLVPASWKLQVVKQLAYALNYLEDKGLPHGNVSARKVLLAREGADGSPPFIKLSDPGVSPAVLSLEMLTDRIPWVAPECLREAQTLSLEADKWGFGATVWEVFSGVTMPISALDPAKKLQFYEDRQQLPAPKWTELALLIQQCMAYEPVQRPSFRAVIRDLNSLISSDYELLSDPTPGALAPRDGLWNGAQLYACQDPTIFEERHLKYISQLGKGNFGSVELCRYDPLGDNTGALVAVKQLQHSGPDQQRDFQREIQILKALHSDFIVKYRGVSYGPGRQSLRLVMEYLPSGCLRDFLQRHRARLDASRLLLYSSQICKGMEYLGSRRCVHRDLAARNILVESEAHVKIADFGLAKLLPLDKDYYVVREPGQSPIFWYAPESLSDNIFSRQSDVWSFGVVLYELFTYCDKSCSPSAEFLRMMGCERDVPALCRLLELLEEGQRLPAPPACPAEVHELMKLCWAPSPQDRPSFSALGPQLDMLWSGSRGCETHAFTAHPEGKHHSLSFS
TYK2, sequence (P29597 whole entry): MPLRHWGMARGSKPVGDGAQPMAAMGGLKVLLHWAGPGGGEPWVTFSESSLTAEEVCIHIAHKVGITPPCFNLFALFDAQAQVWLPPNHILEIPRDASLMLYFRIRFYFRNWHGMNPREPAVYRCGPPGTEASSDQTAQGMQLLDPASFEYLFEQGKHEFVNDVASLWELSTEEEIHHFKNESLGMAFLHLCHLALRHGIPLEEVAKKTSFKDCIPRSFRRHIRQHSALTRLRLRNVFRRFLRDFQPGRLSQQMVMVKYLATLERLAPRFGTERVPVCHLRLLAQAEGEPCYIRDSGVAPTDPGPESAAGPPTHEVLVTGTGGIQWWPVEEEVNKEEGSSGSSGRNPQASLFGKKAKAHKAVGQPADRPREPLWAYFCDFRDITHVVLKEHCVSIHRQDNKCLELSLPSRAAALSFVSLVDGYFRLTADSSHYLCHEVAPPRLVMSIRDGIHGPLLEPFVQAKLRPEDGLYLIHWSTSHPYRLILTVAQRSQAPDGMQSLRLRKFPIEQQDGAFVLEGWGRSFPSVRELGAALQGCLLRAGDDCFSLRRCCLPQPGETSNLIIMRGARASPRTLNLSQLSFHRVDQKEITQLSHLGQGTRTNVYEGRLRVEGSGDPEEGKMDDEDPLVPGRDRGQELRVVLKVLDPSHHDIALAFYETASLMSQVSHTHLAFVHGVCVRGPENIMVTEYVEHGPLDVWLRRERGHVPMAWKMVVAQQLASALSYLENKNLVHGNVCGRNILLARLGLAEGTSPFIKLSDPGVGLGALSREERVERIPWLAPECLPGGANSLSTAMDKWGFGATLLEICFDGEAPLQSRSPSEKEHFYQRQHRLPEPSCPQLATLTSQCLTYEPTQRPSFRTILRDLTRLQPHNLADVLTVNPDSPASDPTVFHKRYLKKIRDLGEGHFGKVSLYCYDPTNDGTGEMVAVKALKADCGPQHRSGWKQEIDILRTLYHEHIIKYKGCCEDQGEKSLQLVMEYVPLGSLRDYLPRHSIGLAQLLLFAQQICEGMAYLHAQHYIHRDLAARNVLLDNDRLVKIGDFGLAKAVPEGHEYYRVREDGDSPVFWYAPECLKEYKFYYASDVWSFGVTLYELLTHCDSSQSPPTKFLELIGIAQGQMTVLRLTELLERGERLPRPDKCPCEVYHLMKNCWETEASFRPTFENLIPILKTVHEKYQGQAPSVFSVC

As for `C=CC(=O)Nc1cc(Nc2ncc(Cl)c(O[C@@H]3CO[C@H]4[C@@H]3OC[C@H]4O)n2)ccc1N1CCC2(CCN(C)CC2)CC1` [LS 5-91], the IC50 in data set [1] stood at 895 nM; in data set [2] (ATP concentration Km), 1060 nM; in data set [3] (ATP concentration 1 mM), 20.6 nM; in data set [3] (ATP concentration Km), 5.5 nM; in data set [4], 233 nM; in data set [5] (Homo sapiens, Jurkat), 34.1 nM. The IC50 is 19.2 nM in data set [6] (Homo sapiens, HuT78, 72 hours); 5.78 nM in [7] (Homo sapiens, U-937, 72 hours); 70.9 nM in data set [8] (Homo sapiens, K562, 72 hours). Moreover, in [3], the “JAK3 kinase inhibitory activity and selectivity (in words)” value was “strong and selective JAK3 kinase inhibitory activity”.

Turning to `C=CC(=O)Nc1cc(Nc2ncc(Cl)c(O[C@@H]3CO[C@H]4[C@@H]3OC[C@H]4O)n2)ccc1N1CCC(N(C)C)CC1` [LS 5-102], the IC50 is 1040 nM in data set [1]; 437 nM in [2] (ATP concentration Km); 2.68 nM in data set [3] (ATP concentration 1 mM); 2.5 nM in data set [3] (ATP concentration Km); 241 nM in data set [4]; 290 nM in data set [5] (Homo sapiens, Jurkat). Also, the IC50 came to 92.4 nM in data set [6] (Homo sapiens, HuT78, 72 hours); 21.1 nM in [7] (Homo sapiens, U-937, 72 hours); 866 nM in [8] (Homo sapiens, K562, 72 hours). The “JAK3 kinase inhibitory activity and selectivity (in words)” value in data set [3] is “strong and selective JAK3 kinase inhibitory activity”.

Consider `C=CC(=O)Nc1cc(Nc2ncc(Cl)cn2)ccc1N1CCC(N2CCN(C)CC2)CC1` [LS 5-126, N-(5-((5-chloropyrimidin-2-yl)amino)-2-(4-(4-methylpiperazin-1-yl)piperidin-1-yl)phenyl) acrylamide], for which the IC50 in data set [1] came to 4770 nM; in data set [2] (ATP concentration Km), 2080 nM; in [3] (ATP concentration 1 mM) it was 4.35 nM; in [3] (ATP concentration Km), 3.9 nM; in [4] it was 3120 nM; in data set [5] (Homo sapiens, Jurkat) it was 551 nM. The IC50 amounted to 463 nM in data set [6] (Homo sapiens, HuT78, 72 hours); 69.2 nM in data set [7] (Homo sapiens, U-937, 72 hours); 39.9 nM in [8] (Homo sapiens, K562, 72 hours).

Consider `C=CC(=O)Nc1cc(Nc2ncc(Cl)c(O[C@@H]3CO[C@H]4[C@@H]3OC[C@H]4O)n2)ccc1N1CCN(CC)CC1` [LS 5-143], for which the IC50 is 481 nM in [1]; 362 nM in data set [2] (ATP concentration Km); 2.17 nM in [3] (ATP concentration 1 mM); 2.19 nM in data set [3] (ATP concentration Km); 166 nM in [4]; 128 nM in [5] (Homo sapiens, Jurkat). The IC50 in data set [6] (Homo sapiens, HuT78, 72 hours) worked out at 75.3 nM; in data set [7] (Homo sapiens, U-937, 72 hours), 12 nM; in data set [8] (Homo sapiens, K562, 72 hours), 216 nM. Further, in data set [3], the “JAK3 kinase inhibitory activity and selectivity (in words)” value is “strong and selective JAK3 kinase inhibitory activity”.

Turning to `C=CC(=O)Nc1cc(Nc2ncc(Cl)c(O[C@@H]3CO[C@H]4[C@@H]3OC[C@H]4O)n2)ccc1N1CCC(N(C)C)C1` (stereo partly shown) [LS 5-150], the IC50 was 270 nM in data set [1]; 606 nM in [2] (ATP concentration Km); 1.74 nM in [3] (ATP concentration 1 mM); 1.98 nM in data set [3] (ATP concentration Km); 186 nM in [4]; 275 nM in data set [5] (Homo sapiens, Jurkat). Also, the IC50 in data set [6] (Homo sapiens, HuT78, 72 hours) was 272 nM; in data set [7] (Homo sapiens, U-937, 72 hours), 15.8 nM; in [8] (Homo sapiens, K562, 72 hours), 897 nM. In addition, in [3], the “JAK3 kinase inhibitory activity and selectivity (in words)” value was “strong and selective JAK3 kinase inhibitory activity”.

Regarding `C=CC(=O)Nc1cc(Nc2ncc(Cl)c(O[C@@H]3CO[C@H]4[C@@H]3OC[C@H]4O)n2)ccc1N1C[C@H]2C[C@@H]1CN2C` [LS 5-154], the IC50 amounted to 800 nM in data set [1]; 524 nM in data set [2] (ATP concentration Km); 1.59 nM in data set [3] (ATP concentration 1 mM); 1.56 nM in [3] (ATP concentration Km); 188 nM in [4]; 346 nM in data set [5] (Homo sapiens, Jurkat). The IC50 is 717 nM in data set [6] (Homo sapiens, HuT78, 72 hours); 34 nM in data set [7] (Homo sapiens, U-937, 72 hours); 2410 nM in data set [8] (Homo sapiens, K562, 72 hours). For the same compound, the “JAK3 kinase inhibitory activity and selectivity (in words)” value in [3] was “strong and selective JAK3 kinase inhibitory activity”.

Regarding `C=CC(=O)Nc1cc(Nc2ncc(Cl)c(O[C@@H]3CO[C@H]4[C@@H]3OC[C@H]4OC)n2)ccc1N1CCC(N2CCN(C)CC2)CC1` [LS 6-16], the IC50 in data set [1] was 533 nM; in data set [2], 967 nM; in data set [3], 8.12 nM and 12.5 nM; in [4] it was 906 nM; in [5] it was 136 nM; in data set [6] (72 hours), 121 nM. In addition, the IC50 in data set [7] (72 hours) amounted to 24 nM; in data set [8] (72 hours), 191 nM.

On to `C=CC(=O)N1C[C@H](Nc2ncnc3[nH]ccc23)CC[C@@H]1C` [PF-06651600, reference compound], for which the IC50 was greater than 30000 nM in [5]; greater than 30000 nM in data set [6] (72 hours); 19.5 nM in data set [7] (72 hours); greater than 30000 nM in data set [8] (72 hours); greater than 10000 nM in data set [9].

Consider `O=C(c1ccc(F)cc1)C1CCN(CCn2c(=O)[nH]c3ccccc3c2=O)CC1` [ketanserin, reference compound], for which the Remaining percentage in data set [10] (0 min) amounted to 100.00%; in [10] (5 min), 75.87%; in [10] (15 min), 42.60%; in data set [10] (30 min), 29.98%; in [10] (45 min) it was 17.88%. Moreover, in data set [10] (rat, liver microsomes, pH 7.4, rat liver microsomes, read-out: Clint), the CLint scaled at 1 µM was 133 mL/min/kg. In addition, in data set [10] (rat, liver microsomes, pH 7.4, rat liver microsomes, read-out: T1/2), the half-life at 1 µM came out at 18.7 min.
